The supplement of paper PMC13207355

Columns and labels:
Conditions in all cases: exposure time: 72 h
E31 [1] = patient-derived glioblastoma stem cells of proneural subtype; test: phenotypic distance (Euclidean, principal components) from DMSO controls (arbitrary units); higher = stronger morphological change
E34 [2] = patient-derived glioblastoma stem cells of proneural subtype; test: as above
E13 [3] = patient-derived glioblastoma stem cells of classical subtype; test: as above
E28 [4] = patient-derived glioblastoma stem cells of classical subtype; test: as above
E21 [5] = patient-derived glioblastoma stem cells of mesenchymal subtype; test: as above
FT3469 [6] = normal neural stem cell line; test: as above
E57 [7] = patient-derived glioblastoma stem cells of mesenchymal subtype; test: as above
E31 [8] = test: surviving fraction (nuclei count normalised to DMSO); higher = more cells surviving (less toxic)
E34 [9] = test: as above
E13 [10] = test: as above
E28 [11] = test: as above
E21 [12] = test: as above
FT3469 [13] = test: as above
E57 [14] = test: as above
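For phenotypic distance (Euclidean, principal components) from DMSO controls in this document: cell Painting imaging in 384-well plates, CellProfiler features reduced to at least 20 principal components, Euclidean distance versus same-plate DMSO vehicle wells (0.1% v/v), median over six images per well.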
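For surviving fraction (nuclei count normalised to DMSO) in this document: nuclei counted by high-content imaging of Hoechst-stained cells in laminin-coated 384-well plates, relative to 0.1% DMSO vehicle wells, with staurosporine as cell-death control.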

NCCNc1ccc(NCCN)c2c1C(=O)c1ccncc1C2=O [Pixantrone dimaleate]
Conditions | phenotypic distance | surviving fraction
E13 [3], 4.1 nM | 2.19 | –
E13 [3], 12.3 nM | 0.616 | –
E13 [3], 37 nM | 0.772 | –
E13 [3], 111.1 nM | 1.76 | –
E13 [3], 333.3 nM | 4.4 | –
E13 [3], 1000 nM | 5.24 | –
E13 [3], 3000 nM | 4.99 | –
E13 [10], 4.1 nM | – | 0.883
E13 [10], 12.3 nM | – | 0.94
E13 [10], 37 nM | – | 0.916
E13 [10], 111.1 nM | – | 0.798
E13 [10], 333.3 nM | – | 0.48
E13 [10], 1000 nM | – | 0.399
E13 [10], 3000 nM | – | 0.383
E21 [5], 4.1 nM | 0.691 | –
E21 [5], 12.3 nM | 0.873 | –
E21 [5], 37 nM | 0.996 | –
E21 [5], 111.1 nM | 2.7 | –
E21 [5], 333.3 nM | 4.95 | –
E21 [5], 1000 nM | 6 | –
E21 [5], 3000 nM | 5.53 | –
E21 [12], 4.1 nM | – | 0.991
E21 [12], 12.3 nM | – | 0.812
E21 [12], 37 nM | – | 0.904
E21 [12], 111.1 nM | – | 0.733
E21 [12], 333.3 nM | – | 0.619
E21 [12], 1000 nM | – | 0.509
E21 [12], 3000 nM | – | 0.364
E28 [4], 4.1 nM | 2.06 | –
E28 [4], 12.3 nM | 2.09 | –
E28 [4], 37 nM | 2.43 | –
E28 [4], 111.1 nM | 3.32 | –
E28 [4], 333.3 nM | 3.6 | –
E28 [4], 1000 nM | 3.19 | –
E28 [4], 3000 nM | 4.63 | –
E28 [11], 4.1 nM | – | 0.677
E28 [11], 12.3 nM | – | 0.604
E28 [11], 37 nM | – | 0.524
E28 [11], 111.1 nM | – | 0.418
E28 [11], 333.3 nM | – | 0.349
E28 [11], 1000 nM | – | 0.333
E28 [11], 3000 nM | – | 0.216
E31 [1], 4.1 nM | 2.15 | –
E31 [1], 12.3 nM | 1.85 | –
E31 [1], 37 nM | 2.43 | –
E31 [1], 111.1 nM | 3.58 | –
E31 [1], 333.3 nM | 2.86 | –
E31 [1], 1000 nM | 3.07 | –
E31 [1], 3000 nM | 4.34 | –
E31 [8], 4.1 nM | – | 0.539
E31 [8], 12.3 nM | – | 0.566
E31 [8], 37 nM | – | 0.397
E31 [8], 111.1 nM | – | 0.327
E31 [8], 333.3 nM | – | 0.312
E31 [8], 1000 nM | – | 0.275
E31 [8], 3000 nM | – | 0.142
E34 [2], 4.1 nM | 0.885 | –
E34 [2], 12.3 nM | 0.947 | –
E34 [2], 37 nM | 1.52 | –
E34 [2], 111.1 nM | 3.49 | –
E34 [2], 333.3 nM | 3.78 | –
E34 [2], 1000 nM | 3.22 | –
E34 [2], 3000 nM | 1.77 | –
E34 [9], 4.1 nM | – | 0.839
E34 [9], 12.3 nM | – | 0.771
E34 [9], 37 nM | – | 0.637
E34 [9], 111.1 nM | – | 0.702
E34 [9], 333.3 nM | – | 0.686
E34 [9], 1000 nM | – | 0.588
E34 [9], 3000 nM | – | 0.492
E57 [7], 4.1 nM | 0.987 | –
E57 [7], 12.3 nM | 0.95 | –
E57 [7], 37 nM | 1.45 | –
E57 [7], 111.1 nM | 3.37 | –
E57 [7], 333.3 nM | 6.17 | –
E57 [7], 1000 nM | 7.83 | –
E57 [7], 3000 nM | 8.45 | –
E57 [14], 4.1 nM | – | 0.955
E57 [14], 12.3 nM | – | 0.897
E57 [14], 37 nM | – | 0.79
E57 [14], 111.1 nM | – | 0.555
E57 [14], 333.3 nM | – | 0.346
E57 [14], 1000 nM | – | 0.288
E57 [14], 3000 nM | – | 0.24
FT3469 [6], 4.1 nM | 1.02 | –
FT3469 [6], 12.3 nM | 1.28 | –
FT3469 [6], 37 nM | 1.5 | –
FT3469 [6], 111.1 nM | 2.03 | –
FT3469 [6], 333.3 nM | 1.76 | –
FT3469 [6], 1000 nM | 1.86 | –
FT3469 [6], 3000 nM | 2.37 | –
FT3469 [13], 4.1 nM | – | 0.869
FT3469 [13], 12.3 nM | – | 0.795
FT3469 [13], 37 nM | – | 0.763
FT3469 [13], 111.1 nM | – | 0.623
FT3469 [13], 333.3 nM | – | 0.666
FT3469 [13], 1000 nM | – | 0.631
FT3469 [13], 3000 nM | – | 0.565
